US12116344B2, “Crystalline forms of a pharmaceutical compound” (Azafaros B.V., priority 2020, dated 2024)
In brackets after ≈: the same amount, converted by molar mass. Read-outs that look alike come from different tables or passages of the source.

Columns and labels:
Type in all cases: physicochemical
[1] = Approximate solubility by incremental solvent addition with shaking/sonication; settings: for solubility: thermodynamic from solid, about 25° C., approximate, read-out: Solubility S
Method: Approximate solubilities were determined by incremental addition of solvent to about 10 mg the compound and subsequent shaking and/or sonication for a short period of time. If the substance was not dissolved by addition of a total of at least 10 ml solvent, the solubility is indicated as <1 mg/ml. The experiments were conducted at about 25° C.
Compound (I) was purified using a silica gel column to remove borate esters followed by a short equilibration in acetonitrile (about 1-5 min). Solubility of purified compound (I) in acetonitrile was determined to be between 5 mg/mL and 8 mg/mL. These values were determined by adding small aliquots of solvent to −10 mg of solid compound (I) and shaking/sonicating for a short period of time at room temperature (about 25° C.).

[2] = Stability of the crystalline form (transition of Form 2 into Form 3); settings: Form 2 transitions into Form 3 above around 30° C. in about 1-5 min, or in solvent for more than 5 min at around 25° C.
Method: Alternatively, Form 2 transitioned into Form 3 upon equilibration in solvent (e.g. acetone) for more than 5 min at around 25° C.

[3] = Dynamic vapour sorption (DVS), hygroscopicity
Method: Dynamic vapour sorption (DVS) measurements were performed with an SPS11-100n “Sorptions Prüfsystem” from ProUmid (formerly “Projekt Messtechnik”), August-Nagel-Str. 23, 89079 Ulm (Germany). About 5 mg to 20 mg of sample was put into an aluminum sample pan. Humidity change rates of 5% per hour were used. The applied measurement program can be described as follows:
The sample was placed on an aluminium or platinum holder on top of a microbalance and allowed to equilibrate at a relative humidity (RH) of 50% before starting the pre-defined humidity programs: • (1) 2 h at 50% RH • (2) 50→0% RH (5%/h); 5 h at 0% RH • (3) 0→95% RH (5%/h); 5 h at 95% RH • (4) 95→0% RH (5%/h); 5 h at 0% RH • (5) 0→95% RH (5%/h); 5 h at 95% RH • (6) 95→50% RH (5%/h); 2 h at 50% RH

SMILES	solubility ([1]; organic solvent or mixture, 1-Propanol) [mg/mL]	solubility ([1]; organic solvent or mixture, 2-Propanol) [mg/mL]	solubility ([1]; organic solvent or mixture, Acetic acid) [mg/mL]	solubility ([1]; organic solvent or mixture, Acetone) [mg/mL]	solubility ([1]; organic solvent or mixture, Acetonitrile) [mg/mL]	solubility ([1]; organic solvent or mixture, DCM) [mg/mL]	solubility ([1]; organic solvent or mixture, Ethanol) [mg/mL]	solubility ([1]; organic solvent or mixture, Ethyl acetate) [mg/mL]	solubility ([1]; organic solvent or mixture, MEK) [mg/mL]	solubility ([1]; organic solvent or mixture, Methanol) [mg/mL]	solubility ([1]; organic solvent or mixture, THF) [mg/mL]	solubility ([1]; Water) [mg/mL]	Solubility in water ([1]; Form 2 crystalline form, summary Table 3) [mg/mL]	Stability of the crystalline form [2]	Hygroscopicity (description) [3]
OC[C@H]1[C@@H](O)[C@H](O)[C@@H](O)CN1CCCCCOCc1ccc(-c2ccccc2)c(F)c1 [compound (I)]	13 to 15 (≈ 30 to 34.6 mM)	19 to 20 (≈ 43.8 to 46.1 mM)	> 120	55 to 73 (≈ 127 to 168 mM)	5 to 8 (≈ 11.5 to 18.5 mM)	> 160	40 to 53 (≈ 92.3 to 122 mM)	12 to 13 (≈ 27.7 to 30 mM)	40 to 50 (≈ 92.3 to 115 mM)	> 160	> 200	~80 (≈ 185 mM)	–	–	–
OC[C@H]1[C@@H](O)[C@H](O)[C@@H](O)CN1CCCCCOCc1ccc(-c2ccccc2)c(F)c1 [Form 2]	–	–	–	–	–	–	–	–	–	–	–	–	~80 (≈ 185 mM)	low stability	hygroscopic
